# Measured values reported in patent US11369648B2 (priority 2018, dated 2022).
# Entries after “also recorded” stand apart in the source; their conditions may differ.
# What was measured:
# influenza virus [1] = test: Effect on body weight of influenza mice; type: in vivo, ICR female mice; conditions: fourth day after challenge, bacteria 10^9 CFU intragastrically daily from two weeks before challenge, ribavirin intraperitoneally from second day
# influenza virus [2] = test: Effect on blood indexes (neutrophils, lymphocytes) of influenza mice; set-up: species or system ICR female mice; conditions: mouse, in vivo
# influenza virus [3] = system: influenza virus; set-up: species or system ICR female mice; conditions: mouse, in vivo
# influenza virus [4] = test: Effect on viral load in lungs of influenza mice (qPCR); type: in vivo, ICR female mice
# antiviral protein MxA = type: in vivo, ICR female mice; conditions: qPCR, GAPDH internal reference, 2^-ΔΔt, times that of the model group
smiles,measurement,setting,value
"NC(=O)c1ncn([C@@H]2O[C@H](CO)[C@@H](O)[C@H]2O)n1 [Treatment, ribavirin]",body weight decrease compared with the control group (Control),influenza virus [1],about 5%
same,"lymphocytes, change compared with the blank control group (Control)",influenza virus [2],without significant differences
same,"neutrophils, change compared with the blank control group (Control)",influenza virus [2],without significant differences
same,"lung histopathology (inflammation, infiltration of inflammatory cells)",influenza virus [3],mild infiltration of inflammatory cells; also recorded: relatively mild inflammation; also recorded: some moderate and mild inflammation
same,reduction in viral load in the lungs (significance versus model group),"influenza virus [4]; mouse, in vivo",has significance
same,"viral load in the lungs, relative to the model group","influenza virus [4]; right lung, fifth day after challenge, qPCR, GAPDH internal reference, 2^-ΔΔt, % of that of the model group",38.03%
same,"expression quantity of MxA in the lungs, relative to the model group (Model)",antiviral protein MxA,2.62 times
